Results taken from patent publication US5221606A, “Reagent and kit for enzyme assay comprising a substrate consonant with given enzyme to be assayed” (King's College London, priority 1987, dated 1993).
Each block holds one compound with its values, some of them ahead of it.

Key:
[1] = system: N-acetyl-β-D-glucosaminidase (NAGase); assay: substrate test with N-acetyl-β-D-glucosaminidase; assay type: biochemical
Procedure: METHOD. The MIXTURE A is dissolved in 10 ml of distilled water to give SOLUTION A. The solution should be allowed to stand in a thermostatically controlled bath at 37° C., and then 0.75 ml of the solution is added to a series of suitable tubes of 2 ml capacity. To these tubes is added, with vigorous stirring, […] aliquots of the urines under examination, and a blank is prepared by adding 0.05 ml of distilled water rather than urine to one of the tubes. The tubes are then incubate for a set length of time (preferably 30 min), after which 0.25 ml of the STOPPING BUFFER is added to each tube and the absorption (A) at 505 nm is determined for each sample, and adjusted for the value of the blank.
The enzyme activity of the enzyme in each sample is given by the expression using and εmax =42,000. [formula] where t=time of incubation in hours

[2] = solubility in water or aqueous buffer
carboxyesterase = assay: substrate test with carboxyesterase; assay type: biochemical
Procedure: The serum samples were diluted by a factor of 10 prior to the assay. The substrate solution and the diluted sera were then preincubated at 37° C. in a water bath. Aliquots (0.75 ml) of the substrate solution were then pipetted into small plastic tubes (2 ml capacity), and 0.05 ml samples of the sera were added to each of the substrate aliquots and shaken vigorously to ensure adequate mixing. A blank was run by substituting water (0.05 ml) for the serum. The reaction was stopped after 10 min by the addition of the stopping buffer (0.25 ml) [prepared by dissolving DABCO (22.4 g) in water (200 ml) and adjusting the pH to 10 by the addition of a little conc. hydrochloric acid. The resulting mixture was then made up to 1000 ml with acetone]. […] [formula] where t=time of incubation in hours
Otherwise it was carried out in exactly the same ways as above

stability on storage = assay type: physicochemical
lipases = assay: substrate test with lipases; assay type: biochemical
alkaline phosphatase = assay: substrate test with alkaline phosphatase; assay type: biochemical
esterases = assay: substrate test with esterases; assay type: biochemical

- quality as substrate for NAGase [1]: excellent substrate
- Km ([1]; substrate for NAGase): 980 µM
- solubility ([2]; water): ≤ 10000 µM
Compound: COc1cc(C=C2SC(=S)N(CC(=O)O)C2=O)ccc1O[C@@H]1O[C@H](CO)[C@@H](O)[C@H](O)[C@H]1NC(C)=O [4b]

- quality as substrate for NAGase [1]: fair substrate
- solubility in water ([2]; water): soluble in water
Compound: COc1cc(C=C2SC(=S)N(CC(=O)O)C2=O)cc(OC)c1O[C@@H]1O[C@H](CO)[C@@H](O)[C@H](O)[C@H]1NC(C)=O [11b]

- quality as substrate for / cleavage by carboxyesterase (carboxyesterase): readily cleaved
- stability on standing (stability on storage; potassium salt compared with free acid): slowly decomposed on standing
- solubility in alkaline buffers ([2]; alkaline buffers (pH 8 etc.)): readily dissolved
- solubility ([2]; water or aqueous buffer, aqueous buffer): > 2000 µM
Compound: CCCC(=O)Oc1c(OC)cc(C=C2SC(=S)N(CC(=O)O)C2=O)cc1OC [11d, n=2, 5-(Butanoyloxy-3,5-dimethoxyphenylmethylene)-2-thioxothiazolidin-4-one-3-ethanoic acid]

- activity as substrate for lipase (lipases): good substrate
Compound: CCCCCCCCCC(=O)Oc1c(OC)cc(C=C2SC(=S)N(CC(=O)O)C2=O)cc1OC [11d, n=8]

- quality as substrate for NAGase [1]: substrate
Compound: COc1cc(/C=C/c2ccc3ccccc3[n+]2C)ccc1O[C@@H]1O[C@H](CO)[C@@H](O)[C@H](O)[C@H]1NC(C)=O [21b, 2-{2-[4-(2-Acetamido-2-deoxy-β-D-glucopyranosyloxy)-3-methoxyphenyl]-vinyl}-1-methylquinolinium iodide]

Compound: COc1cc(/C=C/c2ccc3ccccc3[n+]2C)ccc1OP(=O)(O)O [21f, 2-[2-(4-phosphoroyloxy-3-methoxyphenyl)-vinyl]-1-methylquinolinium iodide]
- quality as substrate for / hydrolysis by alkaline phosphatase (alkaline phosphatase): reacted rapidly
- stability in storage (stability on storage): rather unstable in storage
- solubility in water ([2]; water): very soluble in water

- quality as substrate for NAGase [1]: fair substrate
- solubility in water ([2]; water): good water solubility
Compound: COc1cc(/C=C/c2cc[n+](C)c3ccccc23)ccc1O[C@@H]1O[C@H](CO)[C@@H](O)[C@H](O)[C@H]1NC(C)=O [23b, 4-{2-[4-(2-acetamido-2-deoxy-β-D-glucopyranosyloxy)-3-methoxyphenyl]-vinyl}-1-methylquinolinium iodide]

- solubility ([2]; water): < 250 µM
Compound: COc1cc(/C=C/c2cc[n+](C)c3ccccc23)cc(OC)c1OC(=O)c1ccccc1 [24e, 4-[2(4-Benzoyloxy-3,5-dimethoxyphenyl)-vinyl]-1-methylquinolinium iodide]
- activity as substrate for esterases (esterases): substrate for esterases

- activity as substrate for lipase (lipases): exhibited enzymatic activity
Compound: CCCCCCCCC(=O)Oc1c(OC)cc(C=C2SC(=S)N(c3ccc(C(=O)O)cc3)C2=O)cc1OC [Nonanoate]
